Measured values published in ChEMBL document CHEMBL1201862, “PubChem BioAssay data set” (2004).
Where a name gives a salt, the structure may show the parent alone.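 96-well plates; 48 h exposure; 5 concentrations. Endpoints by linear interpolation between flanking doses. Not reached: highest tested concentration assigned. GI50 marks 50% less growth.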 Activity calls are given as the source filed them. Cut-off read from the data, not from the text of the source: active = GI50 up to about 1.1 µM and inactive = higher.

Assays:
Assay in all cases: growth of human tumour cells (NCI), 48 h
786-0 = system: 786-0
ACHN = system: ACHN
DU-145 = system: DU-145
HCT-116 = system: HCT-116
HOP-62 = system: HOP-62
HT-29 = system: HT-29
K562 = system: K562
KM12 = system: KM12
MCF7 = system: MCF7
MDA-MB-231 = system: MDA-MB-231
Malme-3M = system: Malme-3M
NCI-H23 = system: NCI-H23
NCI-H460 = system: NCI-H460
OVCAR-5 = system: OVCAR-5
OVCAR-8 = system: OVCAR-8
PC-3 = system: PC-3
SK-MEL-28 = system: SK-MEL-28
SN12C = system: SN12C
UACC-257 = system: UACC-257
UACC-62 = system: UACC-62

Row | Structure (SMILES) | GI50 (786-0) | GI50 (ACHN) | GI50 (DU-145) | GI50 (HCT-116) | GI50 (HOP-62) | GI50 (HT-29) | GI50 (K562) | GI50 (KM12) | GI50 (MCF7) | GI50 (MDA-MB-231) | GI50 (Malme-3M) | GI50 (NCI-H23) | GI50 (NCI-H460) | GI50 (OVCAR-5) | GI50 (OVCAR-8) | GI50 (PC-3) | GI50 (SK-MEL-28) | GI50 (SN12C) | GI50 (UACC-257) | GI50 (UACC-62)
1 | COc1ccc(N2C(=O)C3ON(C(C(N)=O)c4ccccc4)C(c4cc5ccccc5c5ccccc45)C3C2=O)cc1 (stereo not given) | 32.4 µM (inactive) | > 50 µM (inactive) | > 50 µM (inactive) | 18.2 µM (inactive) | > 50 µM (inactive) | 18 µM (inactive) | 22.9 µM (inactive) | 32.3 µM (inactive) | 15.6 µM (inactive) | > 50 µM (inactive) | > 50 µM (inactive) | 45.7 µM (inactive) | > 50 µM (inactive) | > 50 µM (inactive) | > 50 µM (inactive) | 30.7 µM (inactive) | > 50 µM (inactive) | 14 µM (inactive) | 22.7 µM (inactive) | 10.6 µM (inactive)
2 | O=C1c2c(O)cccc2-c2nn(CCNCCO)c3ccc(NCCNCCO)c1c23 [LOSOXANTRONE HYDROCHLORIDE] | < 0.0185 µM (active) | 0.0337 µM (active) | < 0.01 µM (active) | 0.043 µM (active) | < 0.0169 µM (active) | 0.303 µM (active) | 0.238 µM (active) | 0.59 µM (active) | < 0.01 µM (active) | 0.185 µM (active) | 0.123 µM (active) | 0.0338 µM (active) | < 0.01 µM (active) | 0.29 µM (active) | 0.159 µM (active) | 0.16 µM (active) | 0.447 µM (active) | 0.0182 µM (active) | 1.6 µM (inactive) | < 0.0451 µM (active)
